# Measurements: the NIST ThermoML archive (doi:10.1016/j.jct.2013.04.001)
# ± gives the expanded uncertainty stated by the source.
# Assay: mn = molality of the nth substance listed, in mol/kg
# Settings: 101 kPa, Liquid; for mass density: Pycnometric method; for viscosity: Capillary tube (Ostwald / Ubbelohde) method
structure (smiles),measurement,setting,value
N=C(N)NCCC[C@H](N)C(=O)O [L-arginine] + O,mass density,"293.15 K, m1 = 0.025",999.51 ± 0.31 kg/m3
same,mass density,"293.15 K, m1 = 0.05",1000.78 ± 0.31 kg/m3
same,mass density,"293.15 K, m1 = 0.075",1002.04 ± 0.31 kg/m3
same,mass density,"293.15 K, m1 = 0.1",1003.3 ± 0.31 kg/m3
same,mass density,"293.15 K, m1 = 0.125",1004.55 ± 0.31 kg/m3
same,mass density,"293.15 K, m1 = 0.15",1005.79 ± 0.31 kg/m3
same,mass density,"293.15 K, m1 = 0.175",1007.02 ± 0.32 kg/m3
same,mass density,"293.15 K, m1 = 0.2",1008.25 ± 0.32 kg/m3
same,viscosity,"298.15 K, m1 = 0.025",0.9009 ± 0.036 mPa·s
same,viscosity,"298.15 K, m1 = 0.05",0.9108 ± 0.037 mPa·s
same,viscosity,"298.15 K, m1 = 0.075",0.9207 ± 0.037 mPa·s
same,viscosity,"298.15 K, m1 = 0.1",0.93 ± 0.038 mPa·s
same,viscosity,"298.15 K, m1 = 0.125",0.9393 ± 0.038 mPa·s
same,viscosity,"298.15 K, m1 = 0.15",0.9486 ± 0.038 mPa·s
same,viscosity,"298.15 K, m1 = 0.175",0.9579 ± 0.039 mPa·s
same,viscosity,"298.15 K, m1 = 0.2",0.9668 ± 0.039 mPa·s
same,mass density,"298.15 K, m1 = 0.025",998.35 ± 0.33 kg/m3
same,mass density,"298.15 K, m1 = 0.05",999.62 ± 0.33 kg/m3
same,mass density,"298.15 K, m1 = 0.075",1000.89 ± 0.33 kg/m3
same,mass density,"298.15 K, m1 = 0.1",1002.14 ± 0.33 kg/m3
same,mass density,"298.15 K, m1 = 0.125",1003.4 ± 0.33 kg/m3
same,mass density,"298.15 K, m1 = 0.15",1004.64 ± 0.33 kg/m3
same,mass density,"298.15 K, m1 = 0.175",1005.88 ± 0.33 kg/m3
same,mass density,"298.15 K, m1 = 0.2",1007.11 ± 0.33 kg/m3
same,viscosity,"303.15 K, m1 = 0.025",0.8062 ± 0.033 mPa·s
same,viscosity,"303.15 K, m1 = 0.05",0.8145 ± 0.033 mPa·s
same,viscosity,"303.15 K, m1 = 0.075",0.8225 ± 0.033 mPa·s
same,viscosity,"303.15 K, m1 = 0.1",0.8304 ± 0.034 mPa·s
same,viscosity,"303.15 K, m1 = 0.125",0.838 ± 0.034 mPa·s
same,viscosity,"303.15 K, m1 = 0.15",0.8457 ± 0.034 mPa·s
same,viscosity,"303.15 K, m1 = 0.175",0.8533 ± 0.034 mPa·s
same,viscosity,"303.15 K, m1 = 0.2",0.8609 ± 0.035 mPa·s
same,mass density,"303.15 K, m1 = 0.025",996.96 ± 0.34 kg/m3
same,mass density,"303.15 K, m1 = 0.05",998.24 ± 0.34 kg/m3
same,mass density,"303.15 K, m1 = 0.075",999.51 ± 0.34 kg/m3
same,mass density,"303.15 K, m1 = 0.1",1000.78 ± 0.34 kg/m3
same,mass density,"303.15 K, m1 = 0.125",1002.03 ± 0.34 kg/m3
same,mass density,"303.15 K, m1 = 0.15",1003.28 ± 0.34 kg/m3
same,mass density,"303.15 K, m1 = 0.175",1004.53 ± 0.34 kg/m3
same,mass density,"303.15 K, m1 = 0.2",1005.76 ± 0.34 kg/m3
same,viscosity,"308.15 K, m1 = 0.025",0.7267 ± 0.029 mPa·s
same,viscosity,"308.15 K, m1 = 0.05",0.7336 ± 0.03 mPa·s
same,viscosity,"308.15 K, m1 = 0.075",0.7403 ± 0.03 mPa·s
same,viscosity,"308.15 K, m1 = 0.1",0.7471 ± 0.03 mPa·s
same,viscosity,"308.15 K, m1 = 0.125",0.7535 ± 0.03 mPa·s
same,viscosity,"308.15 K, m1 = 0.15",0.7601 ± 0.031 mPa·s
same,viscosity,"308.15 K, m1 = 0.175",0.7664 ± 0.031 mPa·s
same,viscosity,"308.15 K, m1 = 0.2",0.7726 ± 0.031 mPa·s
same,mass density,"308.15 K, m1 = 0.025",995.36 ± 0.35 kg/m3
same,mass density,"308.15 K, m1 = 0.05",996.65 ± 0.35 kg/m3
same,mass density,"308.15 K, m1 = 0.075",997.93 ± 0.36 kg/m3
same,mass density,"308.15 K, m1 = 0.1",999.2 ± 0.36 kg/m3
same,mass density,"308.15 K, m1 = 0.125",1000.46 ± 0.36 kg/m3
same,mass density,"308.15 K, m1 = 0.15",1001.72 ± 0.36 kg/m3
same,mass density,"308.15 K, m1 = 0.175",1002.97 ± 0.36 kg/m3
same,mass density,"308.15 K, m1 = 0.2",1004.22 ± 0.36 kg/m3
same,viscosity,"313.15 K, m1 = 0.025",0.6593 ± 0.027 mPa·s
same,viscosity,"313.15 K, m1 = 0.05",0.6652 ± 0.027 mPa·s
same,viscosity,"313.15 K, m1 = 0.075",0.6708 ± 0.027 mPa·s
same,viscosity,"313.15 K, m1 = 0.1",0.6764 ± 0.027 mPa·s
same,viscosity,"313.15 K, m1 = 0.125",0.6818 ± 0.028 mPa·s
same,viscosity,"313.15 K, m1 = 0.15",0.6873 ± 0.028 mPa·s
same,viscosity,"313.15 K, m1 = 0.175",0.6926 ± 0.028 mPa·s
same,viscosity,"313.15 K, m1 = 0.2",0.6976 ± 0.028 mPa·s
same,mass density,"313.15 K, m1 = 0.025",993.55 ± 0.37 kg/m3
same,mass density,"313.15 K, m1 = 0.05",994.85 ± 0.37 kg/m3
same,mass density,"313.15 K, m1 = 0.075",996.14 ± 0.37 kg/m3
same,mass density,"313.15 K, m1 = 0.1",997.42 ± 0.37 kg/m3
same,mass density,"313.15 K, m1 = 0.125",998.69 ± 0.37 kg/m3
same,mass density,"313.15 K, m1 = 0.15",999.96 ± 0.37 kg/m3
same,mass density,"313.15 K, m1 = 0.175",1001.22 ± 0.37 kg/m3
same,mass density,"313.15 K, m1 = 0.2",1002.47 ± 0.37 kg/m3
same,viscosity,"318.15 K, m1 = 0.025",0.6031 ± 0.024 mPa·s
same,viscosity,"318.15 K, m1 = 0.05",0.608 ± 0.025 mPa·s
same,viscosity,"318.15 K, m1 = 0.075",0.6128 ± 0.025 mPa·s
same,viscosity,"318.15 K, m1 = 0.1",0.6174 ± 0.025 mPa·s
same,viscosity,"318.15 K, m1 = 0.125",0.622 ± 0.025 mPa·s
same,viscosity,"318.15 K, m1 = 0.15",0.6266 ± 0.025 mPa·s
same,viscosity,"318.15 K, m1 = 0.175",0.6311 ± 0.025 mPa·s
same,viscosity,"318.15 K, m1 = 0.2",0.6355 ± 0.026 mPa·s
same,mass density,"318.15 K, m1 = 0.025",991.55 ± 0.38 kg/m3
same,mass density,"318.15 K, m1 = 0.05",992.86 ± 0.38 kg/m3
same,mass density,"318.15 K, m1 = 0.075",994.16 ± 0.38 kg/m3
same,mass density,"318.15 K, m1 = 0.1",995.45 ± 0.38 kg/m3
same,mass density,"318.15 K, m1 = 0.125",996.74 ± 0.39 kg/m3
same,mass density,"318.15 K, m1 = 0.15",998.01 ± 0.39 kg/m3
same,mass density,"318.15 K, m1 = 0.175",999.28 ± 0.39 kg/m3
same,mass density,"318.15 K, m1 = 0.2",1000.55 ± 0.39 kg/m3
